Literature values, collected in US6818672B1, “Treating endometriosis or infertility, or improving fertility” (Columbia Laboratories, Inc., priority 1999, dated 2004).

What was measured:
[1] = intravenous administration
[2] = system: myometrial activity, uterine blood flow, lower abdominal pain

SMILES: CC(C)(C)NCC(O)c1cc(O)cc(O)c1 (centres unmarked) [terbutaline, 5-[2-[(1,1-dimethylethyl)amino]-1-hydroxyethyl]-1,3-benzenediol]
- Adverse effects [1]: palpitations and peripheral tremors
- Duration of effect of each spray ([2]; terbutaline inhalation, severe pain in essential dysmenorrhea): 1 h
- Effect on myometrial activity, uterine blood flow and pain in dysmenorrhea ([2]; women with primary dysmenorrhea): inhibit myometrial activity, increase blood flow to the uterus, and relieve the pain
- Bioavailability (after oral administration, extensive first-pass sulphation): 15 and 20%
- Decrease of bioavailability by concomitant food intake (oral administration with concomitant food intake): 30%
